{"source": "patent US11612641B2", "about": "“Method for treating Huntingtons's disease” (UNIVERSITY OF IOWA RESEARCH FOUNDATION, priority 2014, dated 2023)", "key": {"[1]": {"system": "medium spiny neurons (MSN)", "experiment": "DARPP-32 staining: MSN cell area and striatal volume in N171-82Q mice", "format": "in vivo, mouse", "text": "(§1) All animal protocols were approved by the University of Iowa Animal Care and Use Committee. N171-82Q mice were obtained from Jackson Laboratories (Bar Harbor, Me.) and maintained on B6C3F1/J background. Mice were genotyped using primers specific for the mutant human HTT transgene, and hemizygous and age-matched wild-type littermates were used for the indicated experiments. Mice were housed in a controlled temperature environment on a 12-hour light/dark cycle. Food and water were provided ad libitum. For pharmacological studies, RAD001 was obtained from LC Laboratories, diluted to 2 mg/ml in 2% DMSO, and stored at −20° C. […]\n(§2) Floating, 40-μm coronal brain sections were processed for immunohistochemical staining of medium spiny neurons or mHTT aggregates using biotin-labeled antibody. […] S6 phosphorylation was detected with a phospho-S6 antibody (S235/236, 1:300, Cell Signaling). […] The areas of DARPP-32 positive MSN were quantified by Olympus DP2-BSW software (version 2.1). The average MSN areas of ipsilateral injected sides were compared to contralateral control sides and expressed as means+SEM. EM48 positive inclusions were counted by an experimenter blinded to treatment groups.\nStriatal volume was calculated using point counting methods with the Cavalieri estimator of volume (Michel and Cruz-Orive, 1988). […] A minimum of 200 points were counted over 5 sections. […]"}, "mTORC1": {"molecular_target": "T1, mTORC1 (Mus musculus, UniProt P26883+Q9JLN9)", "T1 construct": "Biochemical assessment of mTORC1 activity (pS6) in striatal lysates from N171-82Q mice; from tissue; host or cells: striatum of N171-82Q transgenic mice (in vivo)", "experiment": "mTORC1 activity (pS6) in striatum of N171-82Q mice given RAD001", "format": "in vivo", "conditions": "RAD001 for 2 weeks vs vehicle, striata harvested 24 hours after the last dose", "text": "as §1, with “C. Freshly thawed vehicle and RAD001 (30 μmol/kg) were given 3 times per week (Monday, Wednesday, and Friday) for two weeks by gavage as described previously (Fox et al., 2010).” for “C.”\nas §2, with “groups. […]” for “groups.”"}, "[2]": {"system": "Q7 and Q111 striatal cells", "experiment": "Western blot of Q7 and Q111 striatal cells treated with Torin1", "format": "cell-based", "conditions": "250 nM Torin1, 24 hours", "description": "(§3) Mutant (Q111) and WT (Q7) striatal cells (Trettel et al., 2000) with full-length HTT were kindly provided by Dr. Marcy MacDonald. The Q7 and Q111 cells were grown at 37° C. in Dulbecco's modified Eagle's medium (DMEM; Sigma Chemical Co, St. Louis, Mo.) supplemented with 10% fetal bovine serum, 1% non-essential amino acids, 2 mM L-glutamine, and 400 μg/ml G418 (Geneticin; Invitrogen, Carlsbad, Calif.).\nMouse striata were harvested and lysed in RIPA buffer containing 50 mM Tris (pH 8.0), 150 mM NaCl, 1% […] detergent, 0.1% SDS detergent, 0.5% deoxycholic acid, and 1 mM β-mercaptoethanol with protease inhibitors (Complete Mini, Roche Applied Science, Mannheim, Germany) and phosphatase inhibitors (PhosSTOP Phosphatase Inhibitor Cocktail, Roche Applied Science, Mannheim, Germany). Tissues were homogenized on ice and spun at 14,000 g for 20 min. Supernatant were used for analysis. Protein concentration was determined by BCA assay (Pierce, Rockford, Ill.) and 20-30 μg of protein was reduced and separated by SDS-PAGE on 4%-10% acrylamide gels and transferred to 0.2 μm Immobilon PVDF membranes (Millipore, Billerica, Mass.). The primary antibodies used were as follows: DARPP-32 (1:1000, Cell Signaling), β-actin (Sigma-Aldrich, 1:5000), S6 (1:1000, Cell Signaling), phospho-S6 (S235/236, 1:1000, Cell Signaling), 4EBP1 (1:1000, Cell Signaling), phospho-4E-BP1 (T37/46, 1:1000, Cell Signaling), mTOR (1:1000, Cell Signaling), Rictor (1:1000, Cell Signaling), Raptor (1:1000, Cell Signaling), CREB (1:1000, Cell Signaling), TORC1 (1:1000, Cell Signaling), PGC1-α (1:1000, abeam), LC3 (1:1000, Novus Biologicals), and Beclin1 (1:1000, Cell Signaling). Secondary antibodies used were HRP-goat anti-mouse IgG and HRP-goat anti-rabbit IgG (Cell Signaling). Blots were developed using ECL Plus Western Blotting Detection System (GE Healthcare, Pittsburgh, Pa.), and then exposed to film. Protein quantification was performed using NIH ImageJ software or the VersaDoc™ Imaging System (Biorad) and Quantity One R analysis software. Band densities were normalized to housekeeping (β-actin) bands from the same samples and lanes."}, "[3]": {"system": "Q7 and Q111 striatal cells", "experiment": "RT-qPCR of HMGCR and HMGCS1 in Q7 and Q111 striatal cells treated with Torin1", "format": "cell-based", "conditions": "250 nM Torin1, 24 hours, both mutant and normal cell lines", "description": "as §3\nRNA was isolated from striatal punches using 1 ml of TRIzol. Random-primed first-strand complementary DNA (cDNA) synthesis was performed using 500 ng total RNA (High Capacity cDNA Reverse Transcription Kit; Applied Biosystems, Foster City, Calif.) per manufacturer's protocol. Real-time PCR was performed on a sequence detection system (Prism 7900HT, Applied Biosystems) using SYBR green PCR mix (Invitrogen) or TaqMan 2× Universal Master Mix (Applied Biosystems). The following Taqman primer/probe sets were obtained from Applied Biosystem: Rhes (Mm04209172_m1 and Hs04188091_mH), PGC1-α (Mm01208835_m1), and HMGCS1 (Mm01304569_m1), and HDAC4 (Mm01299557_m1). The primer sequences for SYBR green RT PCR are available upon request. Relative gene expression was determined using the AACT method, normalizing to β-actin."}, "R6/2 HD mice": {"system": "R6/2 HD mice", "conditions": "R6/2 HD mice (Fox et al., 2010); cited from earlier work"}}, "note": "Entries after “also recorded” stand apart in the source; their conditions may differ.", "data": [{"smiles": "CO[C@H]1C[C@@H]2CC[C@@H](C)[C@@](O)(O2)C(=O)C(=O)N2CCCC[C@H]2C(=O)O[C@H]([C@H](C)C[C@@H]2CC[C@@H](OCCO)[C@H](OC)C2)CC(=O)[C@H](C)/C=C(\\C)[C@@H](O)[C@@H](OC)C(=O)[C@H](C)C[C@H](C)/C=C/C=C/C=C/1C", "note": "[RAD001]", "values": [{"measurement": "MSN atrophy", "setting": "[1]; 2 weeks of RAD001 treatment in the absence of caRheb, N171-82Q mice", "result": "mild but significant exacerbation"}, {"measurement": "morphological effects of caRheb (MSN cell size, striatal volume)", "setting": "[1]; RAD001 30 μmol/kg by gavage 3 times per week for two weeks in AAV.caRheb injected N171-82Q mice", "result": "reversed"}, {"measurement": "mTORC1 activity (S6 phosphorylation, pS6)", "setting": "mTORC1", "result": "attenuated; also recorded: inhibits mTORC1 activity"}]}, {"smiles": "CCC(=O)N1CCN(c2ccc(-n3c(=O)ccc4cnc5ccc(-c6cnc7ccccc7c6)cc5c43)cc2C(F)(F)F)CC1", "note": "[Torin1]", "values": [{"measurement": "CREB", "setting": "[2]", "result": "repressed"}, {"measurement": "DARPP-32 expression", "setting": "[2]", "result": "reduced"}, {"measurement": "PGC1-α", "setting": "[2]", "result": "repressed"}, {"measurement": "p-4E-BP1 levels", "setting": "[2]", "result": "reduced"}, {"measurement": "pS6 levels", "setting": "[2]", "result": "reduced"}, {"measurement": "transducer of regulated CREB 1 (TORC1)", "setting": "[2]", "result": "repressed"}, {"measurement": "HMGCR expression", "setting": "[3]", "result": "reduced expression"}, {"measurement": "HMGCS1 expression", "setting": "[3]", "result": "reduced expression"}]}, {"smiles": "CO[C@H]1C[C@@H]2CC[C@@H](C)[C@@](O)(O2)C(=O)C(=O)N2CCCC[C@H]2C(=O)O[C@H]([C@H](C)C[C@@H]2CC[C@@H](O)[C@H](OC)C2)CC(=O)[C@H](C)/C=C(\\C)[C@@H](O)[C@@H](OC)C(=O)[C@H](C)C[C@H](C)/C=C/C=C/C=C/1C", "note": "[rapamycin]", "values": [{"measurement": "brain atrophy", "setting": "R6/2 HD mice", "result": "enhanced brain atrophy"}, {"measurement": "weight loss", "setting": "R6/2 HD mice", "result": "accelerated weight loss"}]}]}
